In patent US8481551B2, “Gyrase and topoisomerase IV inhibitors” (Vertex Pharmaceuticals Incorporated, priority 2011, dated 2013):
Where a name gives a salt, the structure may show the parent alone.

Assay: Seven-day oral (gavage) toxicity and toxicokinetics study in rats
Assay type: in vivo, Crl:CD(SD) rats
Conditions: for Mean food consumption: Compound 13 once daily 100 or 200 mg/kg, Compound 23A twice daily 300 mg/kg, not considered adverse; for adverse observations / mean body weight: 7 days oral gavage; for histopathological findings: any dose regimen; for exposures for different dosage levels: toxicokinetics; for NOEL (No-Observable-Effect-Level) / dose levels without adverse toxicity: male, 7 days
Source text: Crl:CD(SD) rats were obtained from Charles River Laboratories of Stone Ridge, N.Y. The animals were laboratory bred and experimentally naïve. Rats were chosen because they are a species that is commonly used for nonclinical toxicity evaluations.
Forty rats (20 noncannulated males and 20 males with jugular vein cannulas) were ordered. From these animals, 15 noncannulated males and 15 cannulated males were used. Animals were as uniform in age as possible. The rats were prepubertal to young adult, approximately 9 weeks of age at initiation of dosing. Their supplier-calculated birth date was retained in the study records. The weight range for the animals at the time of allocation to groups was 218.5-306.3 g.
Animals received the test article or vehicle by oral gavage for 7 consecutive days and were terminated the day following completion of dosing. The first day of dosing was designated as Day 1 of the study. The animals were evaluated for changes in clinical signs, body weight, and other parameters as described below.
The vehicle and test article were administered by oral gavage once daily for 7 consecutive days at a dose volume of 10 mL/kg body weight for Group A and Groups B-D, respectively. The test article and vehicle were administered by oral gavage twice daily, approximately 8 hours apart, for 7 consecutive days at a dose volume of 10 mL/kg body weight for Group E and Group F, respectively. The actual volume administered to each animal was calculated and adjusted based on the most recent body weight of each animal.
The postdosing observations made during treatment occurred at the following times based on Cmax/Tmax for the two compounds from previous studies:
Prior to start of dosing, body weights were measured for randomization on Day 1. During the treatment, body weights were measured on Day 1 and Day 7. In addition, fasted body weights were measured prior to necropsy for calculation of organ/body weight ratios.
Throughout the study, food consumption was measured daily starting 3 days prior to start of dosing.
Blood samples for evaluation of hematology, coagulation, and serum chemistry parameters were collected from all animals from the retro-orbital plexus (under CO2/O2 anesthesia, for the main study animals) or jugular vein cannula (for the toxicokinetic animals) prior to necropsy. Due to residual heparin used to keep the cannulas patent for the toxicokinetic animals, coagulation samples from these rats, were not able to be analyzed. The animals were fasted overnight prior to blood collection. On the day of blood collection for clinical pathology analyses, the animals were not necropsied until after the blood was collected and the samples judged to be acceptable by the clinical pathology group.
An appropriate amount of blood was collected in EDTA-containing tubes. The whole blood samples were analyzed for the parameters indicated below in Table 11.
An appropriate amount of blood was collected in tubes containing sodium citrate and then centrifuged to obtain plasma for the determination of prothrombin time (PT) and activated partial thromboplastin time (APTT).
An appropriate amount of blood was collected in tubes without anticoagulant. The sample was allowed to clot and then was centrifuged to obtain serum. The serum was analyzed for the parameters indicated below in Table 12.
On the 1st and 7th day of dosing, blood samples (approximately 0.5 mL/sample) were collected from the jugular vein cannula for all toxicokinetic animals at the timepoints listed below into K3EDTA-containing tubes. […] Prior to each collection, a small sample of blood (with heparin blocking solution) was removed from the cannula and discarded. A new syringe was placed on the cannula, and the protocol-required sample was taken. The syringe with the blood sample was removed, and a new syringe with saline attached to the cannula. Blood volume was replaced with an equal volume of saline and then blocking solution placed in the cannula. […]

[1] = 300 mg/kg twice a day, compared to controls treated twice a day

| Structure (SMILES) | Mean food consumption | AUC at 7 day (Crl:CD(SD), rat, in vivo, male rats, 200 mg/kg once a day for 7 days, oral gavage) | adverse observations / mean body weight (male rats) | histopathological findings (male rats) | exposures for different dosage levels (male rats) | NOEL (No-Observable-Effect-Level) (Crl:CD(SD), rat, in vivo, po) | dose levels without adverse toxicity (Crl:CD(SD), rat, in vivo, po) | mean ALT [1] | mean AST [1] | NOAEL at 7 days (Crl:CD(SD), rat, in vivo, po, 300 mg/kg, male rats, twice a day for 7 days orally via gavage, read-out: NOAEL (No-Observable-Adverse-Effect-Level)) | AUC (Crl:CD(SD), rat, in vivo, male rats, 100 mg/kg once a day for 7 days, oral gavage) | AUC (Crl:CD(SD), rat, in vivo, male rats, 300 mg/kg twice a day for 7 days, oral gavage) |
| --- | --- | --- | --- | --- | --- | --- | --- | --- | --- | --- | --- | --- |
| CCNC(=O)Nc1nc2cc(-c3cnc(C(C)(C)O)nc3)cc([C@H]3CCCO3)c2[nH]1 [Compound 13, methanesulfonic acid salt of 1-ethyl-3-[5-[2-(1-hydroxy-1-methyl-ethyl)pyrimidin-5-yl]-7-[(2R)-tetrahydrofuran-2-yl]-1H-benzimidazol-2-yl]urea] | reduced during different intervals of the study | 844 µg·h/mL | No adverse observations or effects on mean body weight | No test article-related histopathological findings | dose related | 200 mg/kg | up to 200 mg/kg/day |  |  |  |  |  |
| CCNC(=O)Nc1nc2cc(-c3cnc(C(C)(C)O)nc3)c(F)c([C@H]3CCCO3)c2[nH]1 [Compound 23A, methanesulfonic acid salt of 1-ethyl-3-[6-fluoro-5-[2-(1-hydroxy-1-methyl-ethyl)pyrimidin-5-yl]-7-[(2R)-tetrahydrofuran-2-yl]-1H-benzimidazol-2-yl]urea] | reduced during different intervals of the study |  | No adverse observations or effects on mean body weight | No test article-related histopathological findings | dose related | 100 mg/kg | ≤ 600 mg/kg/day | statistically higher | statistically higher | 300 mg/kg | 82 µg·h/mL | 291 µg·h/mL |
